Results from PubChem BioAssay AID248 (DTP/NCI, 2004).
“And” between values parts separate entries of the source, which are not always exact repeats. Equal entries are not always repeated. Toxic doses and inconclusive results are not listed. Rule as the data show it: active = T/C of 150% or more; inactive = T/C below 125%.

Test system: L1210 leukemia ip in BDF1 mice, survival T/C
Assay: NCI In Vivo Anticancer Drug Screen. Data for tumor model L1210 Leukemia (intraperitoneal) in B6D2F1 (BDF1) mice
Settings: endpoint: mean survival time, higher = longer survival
Outline: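 Value reflects the ratio of survival in compound-treated mice to survival in vehicle-treated controls, with both groups carrying the same transplanted tumor.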

[1] = dose: 5.0 mg/kg/injection, schedule: Q01DX001 (ip), vehicle: saline
[2] = dose: 10.0 mg/kg/injection, schedule: Q01DX001 (ip), vehicle: saline
[3] = dose: 20.0 mg/kg/injection, schedule: Q01DX001 (ip), vehicle: saline
[4] = dose: 40.0 mg/kg/injection, schedule: Q01DX001 (ip), vehicle: saline
[5] = dose: 100.0 mg/kg/injection, schedule: Q01DX001 (ip), vehicle: Klucel (hydroxypropylcellulose) (HPC)
[6] = dose: 400.0 mg/kg/injection, schedule: Q01DX001 (ip), vehicle: Klucel (hydroxypropylcellulose) (HPC)
[7] = dose: 50.0 mg/kg/injection, schedule: Q01DX001 (ip), vehicle: carboxymethylcellulose (CMC)
[8] = dose: 100.0 mg/kg/injection, schedule: Q01DX001 (ip), vehicle: carboxymethylcellulose (CMC)
[9] = dose: 200.0 mg/kg/injection, schedule: Q01DX001 (ip), vehicle: carboxymethylcellulose (CMC)
[10] = dose: 400.0 mg/kg/injection, schedule: Q01DX001 (ip), vehicle: carboxymethylcellulose (CMC)
[11] = dose: 75.0 mg/kg/injection, schedule: Q01DX001 (ip), vehicle: other
[12] = dose: 100.0 mg/kg/injection, schedule: Q01DX009 (ip), vehicle: saline with Tween-80

Measured: T/C

CN1CCN(C2CCCc3ccccc3C2O)CC1 (centres undefined)
inactive: [1] 109 % of control | [2] 105 % of control | [3] 103 % of control | [4] 103 % of control

CCCCCCCCCCCCC[n+]1ccc(C#N)cc1
inactive: dose: 7.5 mg/kg/injection, schedule: Q04DX003 (ip), vehicle: saline 101 % of control | dose: 15.0 mg/kg/injection, schedule: Q04DX003 (ip), vehicle: saline 98 % of control | dose: 30.0 mg/kg/injection, schedule: Q04DX003 (ip), vehicle: saline 101 % of control

Cc1ncc2c(=O)[nH]ccn12
inactive: dose: 100.0 mg/kg/injection, schedule: Q04DX003 (ip), vehicle: water 103 % of control | dose: 200.0 mg/kg/injection, schedule: Q04DX003 (ip), vehicle: water 103 % of control | dose: 400.0 mg/kg/injection, schedule: Q04DX003 (ip), vehicle: water 103 % of control

O=C1CC2(CCCCC2)C(=O)N1N1CCCCCC1
inactive: [5] 102 % of control | dose: 200.0 mg/kg/injection, schedule: Q01DX001 (ip), vehicle: Klucel (hydroxypropylcellulose) (HPC) 100 % of control | [6] 97 % of control

CC(=S)Oc1cccc(C)c1
inactive: [7] 102 % of control | [8] 98 % of control | [9] 96 % of control | [10] 104 % of control

O=C(O)c1cccc(C(=O)O)n1
inactive: dose: 75.0 mg/kg/injection, schedule: Q01DX001 (ip), vehicle: acetone 98 % of control | dose: 150.0 mg/kg/injection, schedule: Q01DX001 (ip), vehicle: acetone 97 % of control

CCCCCCC(C)NCCOC(=O)c1ccc(N)cc1 (centres undefined)
inactive: dose: 38.0 mg/kg/injection, schedule: Q04DX003 (ip), vehicle: other 104 % of control | [11] 106 % of control and 98 % of control | dose: 75.0 mg/kg/injection, schedule: Q01DX001 (ip), vehicle: saline 96 % of control and 100 % of control | dose: 75.0 mg/kg/injection, schedule: Q04DX003 (ip), vehicle: other 104 % of control | dose: 150.0 mg/kg/injection, schedule: Q01DX001 (ip), vehicle: other 98 % of control and 93 % of control | dose: 150.0 mg/kg/injection, schedule: Q01DX001 (ip), vehicle: saline 91 % of control

CC1(C)OC(CF)C2OC(C)(C)OC(CF)C2O1 (centres undefined)
inactive: dose: 56.25 mg/kg/injection, schedule: Q01DX009 (ip), vehicle: carboxymethylcellulose (CMC) 95 % of control | [8] 96 % of control | dose: 112.5 mg/kg/injection, schedule: Q01DX009 (ip), vehicle: carboxymethylcellulose (CMC) 102 % of control | [9] 96 % of control | [10] 104 % of control

O=C(Nc1cccc(Cl)c1)Oc1c(Cl)cc(S(=O)(=O)F)cc1Cl
inactive: dose: 25.0 mg/kg/injection, schedule: Q01DX009 (ip), vehicle: saline with Tween-80 97 % of control | dose: 25.0 mg/kg/injection, schedule: Q04DX002 (ip), vehicle: saline with Tween-80 101 % of control | dose: 50.0 mg/kg/injection, schedule: Q01DX009 (ip), vehicle: saline with Tween-80 93 % of control | dose: 50.0 mg/kg/injection, schedule: Q04DX002 (ip), vehicle: saline with Tween-80 93 % of control | [12] 100 % of control | dose: 100.0 mg/kg/injection, schedule: Q04DX002 (ip), vehicle: saline with Tween-80 96 % of control and 90 % of control

C=C1C(=O)OC2C1CCC(C)C1(O)C=CC(=O)C21C (centres undefined)
inactive: dose: 6.25 mg/kg/injection, schedule: Q01DX009 (ip), vehicle: saline 98 % of control | dose: 12.5 mg/kg/injection, schedule: Q01DX009 (ip), vehicle: saline 98 % of control | dose: 25.0 mg/kg/injection, schedule: Q01DX009 (ip), vehicle: saline 101 % of control | dose: 50.0 mg/kg/injection, schedule: Q01DX009 (ip), vehicle: saline 103 % of control

C(=C/c1ccccc1)/C=N/Nc1ccccc1
inactive: dose: 100.0 mg/kg/injection, schedule: Q04DX003 (ip), vehicle: Klucel (hydroxypropylcellulose) (HPC) 98 % of control | dose: 200.0 mg/kg/injection, schedule: Q04DX003 (ip), vehicle: Klucel (hydroxypropylcellulose) (HPC) 95 % of control | dose: 400.0 mg/kg/injection, schedule: Q04DX003 (ip), vehicle: Klucel (hydroxypropylcellulose) (HPC) 92 % of control

CCCCCCCCCCSC#N
inactive: [1] 103 % of control | [2] 97 % of control | [3] 105 % of control | dose: 20.0 mg/kg/injection, schedule: Q01DX009 (ip), vehicle: saline 111 % of control | dose: 20.0 mg/kg/injection, schedule: Q04DX003 (ip), vehicle: saline 100 % of control | [4] 97 % of control | dose: 40.0 mg/kg/injection, schedule: Q01DX009 (ip), vehicle: saline 106 % of control | dose: 40.0 mg/kg/injection, schedule: Q04DX003 (ip), vehicle: saline 100 % of control | dose: 80.0 mg/kg/injection, schedule: Q01DX009 (ip), vehicle: saline 100 % of control | dose: 80.0 mg/kg/injection, schedule: Q04DX003 (ip), vehicle: saline 101 % of control

C=CCOC(=O)Nc1cccc2ccccc12
inactive: dose: 100.0 mg/kg/injection, schedule: Q04DX002 (ip), vehicle: Klucel (hydroxypropylcellulose) (HPC) 91 % of control | dose: 200.0 mg/kg/injection, schedule: Q04DX002 (ip), vehicle: Klucel (hydroxypropylcellulose) (HPC) 94 % of control | dose: 400.0 mg/kg/injection, schedule: Q04DX002 (ip), vehicle: Klucel (hydroxypropylcellulose) (HPC) 94 % of control

c1ccc(C2=NC(c3ccccc3)NC2c2ccccc2)cc1 (centres undefined)
inactive: dose: 25.0 mg/kg/injection, schedule: Q01DX001 (ip), vehicle: Klucel (hydroxypropylcellulose) (HPC) 95 % of control | dose: 50.0 mg/kg/injection, schedule: Q01DX001 (ip), vehicle: Klucel (hydroxypropylcellulose) (HPC) 98 % of control

CC12C=CC(=O)C=C1CCC1C2C(O)CC2(C)C1CCC2(O)C(=O)CSc1ncnc2nc[nH]c12 (centres undefined)
inactive: dose: 60.0 mg/kg/injection, schedule: Q01DX015 (ip), vehicle: saline 92 % of control | dose: 90.0 mg/kg/injection, schedule: Q01DX015 (ip), vehicle: saline 100 % of control | dose: 100.0 mg/kg/injection, schedule: Q01DX001 (sc), vehicle: steriod suspending solution 112 % of control | dose: 135.0 mg/kg/injection, schedule: Q01DX015 (ip), vehicle: saline 92 % of control | dose: 200.0 mg/kg/injection, schedule: Q01DX001 (sc), vehicle: steriod suspending solution 112 % of control | dose: 200.0 mg/kg/injection, schedule: Q01DX015 (ip), vehicle: saline 92 % of control | dose: 400.0 mg/kg/injection, schedule: Q01DX001 (sc), vehicle: steriod suspending solution 97 % of control

COc1ccc([N+](=O)[O-])cc1CNCCCl
inactive: [5] 100 % of control | [6] 94 % of control

CCOP(=O)(OCC)C1=C(P(=O)(OCC)OCC)C(F)(F)C1(F)F
inactive: [11] 102 % of control

C(=N\c1nncs1)/Nc1nncs1
inactive: dose: 40.0 mg/kg/injection, schedule: Q01DX015 (ip), vehicle: carboxymethylcellulose (CMC) 114 % of control and 118 % of control | [7] 102 % of control | dose: 60.0 mg/kg/injection, schedule: Q01DX015 (ip), vehicle: carboxymethylcellulose (CMC) 94 % of control | dose: 90.0 mg/kg/injection, schedule: Q01DX015 (ip), vehicle: carboxymethylcellulose (CMC) 118 % of control | [8] 98 % of control | dose: 135.0 mg/kg/injection, schedule: Q01DX015 (ip), vehicle: carboxymethylcellulose (CMC) 88 % of control | [10] 124 % of control

C=C1CC23CC[C@H]4[C@@](C)(CCC[C@@]4(C)C(=O)OC4OC(CO)C(O)C(O)C4O)[C@@H]2CC[C@@]1(OC1OC(CO)C(O)C(O)C1OC1OC(CO)C(O)C(O)C1O)C3 (some centres undefined)
inactive: dose: 100.0 mg/kg/injection, schedule: Q01DX001 (ip), vehicle: saline with Tween-80 101 % of control | dose: 200.0 mg/kg/injection, schedule: Q01DX001 (ip), vehicle: saline with Tween-80 93 % of control | dose: 400.0 mg/kg/injection, schedule: Q01DX001 (ip), vehicle: saline with Tween-80 96 % of control

CSc1nc(N)c(N=Nc2ccc(S(=O)(=O)Nc3occ(C)c3C)cc2)c(=O)[nH]1
inactive: [8] 97 % of control | [9] 92 % of control | [10] 94 % of control

CCOC(=O)C1(C)OC1c1ccc2c(c1)OCO2 (centres undefined)
inactive: [12] 106 % of control | dose: 200.0 mg/kg/injection, schedule: Q01DX009 (ip), vehicle: saline with Tween-80 95 % of control | dose: 400.0 mg/kg/injection, schedule: Q01DX009 (ip), vehicle: saline with Tween-80 103 % of control
